Patent publication US20260137773A1 (priority 2022, published 2026)

Tests used:
[1] = healthy volunteers; cited from earlier work
[2] = system: 4T1 mouse mammary gland carcinoma; type: in vivo; details: data not shown
complement activation = details: higher than Factor H; cited from earlier work

## CC[C@H](C(=O)N1CCCC[C@H]1C(=O)O[C@H](CCc1ccc(OC)c(OC)c1)c1cccc(OCC(=O)NCCNC(=O)COc2cccc([C@@H](CCc3ccc(OC)c(OC)c3)OC(=O)[C@@H]3CCCCN3C(=O)[C@@H](CC)c3cc(OC)c(OC)c(OC)c3)c2)c1)c1cc(OC)c(OC)c(OC)c1 [AP1903]
[1]
  safety: proven safe

## Versikine
[2]
  tumor size, Versikine assessed alone: did not significantly reduced tumor size

B1: miniFH (protein)
chain: EDCNELPPRRNTEILTGSWSDQTYPEGTQAIYKCRPGYRSLGNVIMVCRKGEWVALNPLRKCQKRPCGHPGDTPFGTFTLTGGNVFEYGVKAVYTCNEGYQLLGEINYRECDTDGWTNDIPICEVVKCLPVTAPENGKIVSSAMEPDREYHFGQAVRFVCNSGYKIEGDEEMHCSDDGFWSKEKPKCVEISCKSPDVINGSPISQKIIYKENERFQYKCNMGYEYSERGDAVCTESGWRPLPSCEEKSCDNPYIPNGDYSPLRIKHRTGDEITYQCRNGFYPATRGNTAKCTSTGWIPAPRCTSGSGGGGVDTTSCVNPPTVQNAYIVSRQMSKYPSGERVRYQCRSPYEMFGDEEVMCLNGNWTEPPQCKDSTGKCGPPPPIDNGDITSFPLSVYAPASSVEYQCQNLYQLEGNKRITCRNGQWSEPPKCLHPCVISREIMENYNIALRWTAKQKLYSRTGESVEFVCKRGYRLSSRSHTLRTTCWDGKLEYPTCAKR
modifications: REGION 1..499: note = miniFH POLYPEPTIDE
Complement activation
  ex vivo potency to inhibit complement activation compared with FH: ~10 fold
